Test results taken from patent US8399681B2, “Substituted aminothiazolone indazoles as estrogen related receptor-alpha modulators” (Janssen Pharmaceutica NV, priority 2009, dated 2013).

Target: T1, ERR1 (also known as ERR-α or ERR-1) (Homo sapiens, UniProt P11474)
T1 sequence (P11474 193-421 limits assumed): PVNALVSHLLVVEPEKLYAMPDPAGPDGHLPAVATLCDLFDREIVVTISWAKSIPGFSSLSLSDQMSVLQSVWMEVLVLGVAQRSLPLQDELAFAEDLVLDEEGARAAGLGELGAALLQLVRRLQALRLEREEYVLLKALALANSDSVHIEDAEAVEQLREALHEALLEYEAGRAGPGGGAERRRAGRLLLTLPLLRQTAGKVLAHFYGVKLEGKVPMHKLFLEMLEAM
Assay: TR-FRET assay (disruption of co-activator peptide binding)
Assay type: biochemical
Conditions: 6His-tagged ERR1 LBD, GST-hSRC2 co-activator polypeptide; average of 3 independent experiments
Method: Time-Resolved Fluorescence Resonance Energy Transfer (TR-FRET) experiments were performed to examine the functional response of ERR1 (also known as ERR-α or ERR-1) ligands. The TR-FRET assay described herein relied on the conformation of ERR1 for binding to a co-activator peptide: when a test compound binds to ERR1 and alters its conformation, it can disrupt the binding of the co-activator peptide. The components of this homogeneous secondary assay included: the ^6His-tagged-ERR1LBD, a GST-labeled-hSRC2 co-activator polypeptide and a fluorescent donor/acceptor pair from CIS bio international htrf/bioassays (Bedford, Mass.) using both an α-GST Europium Cryptate (Eu) label and an α^6His-XL665 (allophycocyanin) fluorophore.
For TR-FRET measurements, the reaction was buffered in 25 mM Tris pH 8, 2.5 mM Hepes, 20 mM KCl, 1 mM DTT, and 0.05 mg/mL BSA (-lipids). The final concentrations of reagents were 6 nM of ERR1LBD, 6 nM GST-SRC-2 peptide, 30 nM Eu cryptate, and 7.5 nM XL665. Reactions were allowed to reach equilibrium at 25° C. for 4-18 hours before collecting data on the Analyst from LJL Biosystems (Molecular Devices Sunnyvale, Calif.). As a time-resolved method, the samples were excited at […] and emission was collected for 1 ms at both 615 and 665 nm with delays of 400 and 75 μs, respectively. Dose response curves were fitted using a hyperbolic equation and the data reported is the average of 3 independent experiments.

SMILES	EC50 [nM]
CN1CCN(C2=NC(=O)/C(=C/c3ccc4c(cnn4Cc4ccc(OS(C)(=O)=O)cc4C(F)(F)F)c3)S2)CC1 [Compound 23, Methanesulfonic acid 4-{5-[2-(4-methyl-piperazin-1-yl)-4-oxo-4H-thiazol-5-ylidenemethyl]-indazol-1-ylmethyl}-3-trifluoromethyl-phenyl ester]	10.4
CC[C@H]1CN(C)CCN1C1=NC(=O)/C(=C/c2ccc3c(cnn3Cc3ccc(Cl)cc3C(F)(F)F)c2)S1 [Example 256, 5-({1-[4-Chloro-2-(trifluoromethyl)benzyl]-1H-indazol-5-yl}methylidene)-2-((2S)-2-ethyl-4-methylpiperazin-1-yl)-1,3-thiazol-4(5H)-one]	49
CC(C)(O)c1ccc(Cn2ncc3cc(/C=C4\SC(N5CCC(C(=O)O)CC5)=NC4=O)ccc32)c(C(F)(F)F)c1 [Example 245]	235
O=C1N=C(N2CCCN(CCF)CC2)S/C1=C\c1ccc2c(cnn2Cc2ccc(Cl)cc2C(F)(F)F)c1 [Example 133, 5-[1-(4-Chloro-2-trifluoromethyl-benzyl)-1H-indazol-5-ylmethylene]-2-[4-(2-fluoro-ethyl)-[1,4]diazepan-1-yl]-thiazol-4-one]	4.1
CC(C)(O)c1ccc(Cn2ncc3cc(/C=C4\SC(N5CCN[C@@H](CO)C5)=NC4=O)ccc32)c(C(F)(F)F)c1 [Example 246, 5-({1-[4-(1-Hydroxy-1-methylethyl)-2-(trifluoromethyl)benzyl]-1H-indazol-5-yl}methylidene)-2-[3-(R)-(hydroxymethyl)piperazin-1-yl]-1,3-thiazol-4(5H)-one]	230
CC(N[C@H]1CCN(C2=NC(=O)/C(=C/c3ccc4c(cnn4Cc4ccc(Cl)cc4C(F)(F)F)c3)S2)C1)C(N)=O (stereo partly drawn) [Example 265, N-2-{(3S)-1-[5-({1-[4-Chloro-2-(trifluoromethyl)benzyl]-1H-indazol-5-yl}methylidene)-4-oxo-4,5-dihydro-1,3-thiazol-2-yl]pyrrolidin-3-yl}alaninamide]	38
C[C@@H]1CN(C2CN(C3=NC(=O)/C(=C/c4ccc5c(cnn5Cc5ccc(C(F)(F)F)cc5C(F)(F)F)c4)S3)C2)C[C@H](C)O1 [Example 202, 5-({1-[2,4-Bis(trifluoromethyl)benzyl]-1H-indazol-5-yl}methylidene)-2-[3-(2,6-cis-dimethylmorpholin-4-yl)azetidin-1-yl]-1,3-thiazol-4(5H)-one]	59.7
O=C1N=C(N2CCO[C@H](CO)C2)S/C1=C\c1ccc2c(cnn2Cc2ccc(F)cc2C(F)(F)F)c1 [Example 177, 5-[1-(4-Fluoro-2-trifluoromethyl-benzyl)-1H-indazol-5-ylmethylene]-2-((2S)-2-hydroxymethyl-morpholin-4-yl)-thiazol-4-one]	55
CN1CCN(C2=NC(=O)/C(=C/c3ccc4c(c3)c(C#N)nn4Cc3ccc(Cl)cc3C(F)(F)F)S2)CC1(C)C [Example 222, 1-[4-Chloro-2-(trifluoromethyl)benzyl]-5-{[4-oxo-2-(3,3,4-trimethylpiperazin-1-yl)-1,3-thiazol-5(4H)-ylidene]methyl}-1H-indazole-3-carbonitrile]	20
CN1C[C@H]2CC[C@@H](C1)N2C1=NC(=O)/C(=C/c2ccc3c(cnn3Cc3ccc(C(F)(F)F)cc3C(F)(F)F)c2)S1 [Example 86, 5-[1-(2,4-Bis-trifluoromethyl-benzyl)-1H-indazol-5-ylmethylene]-2-(3-methyl-3,8-diaza-bicyclo[3.2.1]oct-8-yl)-thiazol-4-one]	20
CN(C)[C@@H]1CCN(C2=NC(=O)/C(=C/c3ccc4c(cnn4Cc4ccc(C(F)(F)F)cc4C(F)(F)F)c3)S2)C1 [Example 252, 5-({1-[2,4-Bis(trifluoromethyl)benzyl]-1H-indazol-5-yl}methylidene)-2-[(3R)-3-(dimethylamino)pyrrolidin-1-yl]-1,3-thiazol-4(5H)-one]	190
COC[C@@H]1CN(C2=NC(=O)/C(=C/c3ccc4c(cnn4Cc4ccc(C(F)(F)F)cc4C(F)(F)F)c3)S2)CCO1 [Example 234, 5-({1-[2,4-Bis(trifluoromethyl)benzyl]-1H-indazol-5-yl}methylidene)-2-[2-(S)-(methoxymethyl)morpholin-4-yl]-1,3-thiazol-4(5H)-one]	16
O=C1N=C(N2CCCN(C(=O)OCC(F)(F)F)CC2)S/C1=C\c1ccc2c(cnn2Cc2ccc(Cl)cc2C(F)(F)F)c1 [Example 136, 4-{5-[1-(4-Chloro-2-trifluoromethyl-benzyl)-1H-indazol-5-ylmethylene]-4-oxo-4,5-dihydro-thiazol-2-yl}[1,4]diazepane-1-carboxylic acid 2,2,2-trifluoro-ethyl ester]	34
COC1CN(C2=NC(=O)/C(=C/c3ccc4c(cnn4Cc4ccc(Cl)cc4C(F)(F)F)c3)S2)C1 [Example 113, 5-[1-(4-Chloro-2-trifluoromethyl-benzyl)-1H-indazol-5-ylmethylene]-2-(3-methoxy-azetidin-1-yl)-thiazol-4-one]	14
O=C1N=C(N2C[C@@H](O)[C@H](O)C2)S/C1=C\c1ccc2c(cnn2Cc2ccc(Cl)cc2C(F)(F)F)c1 [Example 99, 5-[1-(4-Chloro-2-trifluoromethyl-benzyl)-1H-indazol-5-ylmethylene]-2-(3R,4R-dihydroxy-pyrrolidin-1-yl)-thiazol-4-one]	2.8
O=C1CCN(C2=NC(=O)/C(=C/c3ccc4c(cnn4Cc4ccc(Cl)cc4C(F)(F)F)c3)S2)CCN1 [Example 114, 1-{5-[1-(4-Chloro-2-trifluoromethyl-benzyl)-1H-indazol-5-ylmethylene]-4-oxo-4,5-dihydro-thiazol-2-yl}-[1,4]diazepan-5-one]	13
O=C1N=C(N2CCC[C@H](C(=O)O)C2)S/C1=C\c1ccc2c(cnn2Cc2ccc(Cl)cc2C(F)(F)F)c1 [Example 48, 1-{5-[1-(4-Chloro-2-trifluoromethyl-benzyl)-1H-indazol-5-ylmethylene]-4-oxo-4,5-dihydro-thiazol-2-yl}piperidine-3-(S)-carboxylic acid]	14.3
COC(=O)N1CCN(C2=NC(=O)/C(=C/c3ccc4c(cnn4Cc4ccc(C(F)(F)F)cc4C(F)(F)F)c3)S2)C[C@@H]1CO [Example 216, Methyl 4-[5-({1-[2,4-bis(trifluoromethyl)benzyl]-1H-indazol-5-yl}methylidene)-4-oxo-4,5-dihydro-1,3-thiazol-2-yl]-2-(R)-(hydroxymethyl)piperazine-1-carboxylate]	15
O=C1N=C(N2CCCC(NCCO)C2)S/C1=C\c1ccc2c(cnn2Cc2ccc(C(F)(F)F)cc2C(F)(F)F)c1 (stereo not shown) [Example 267, 5-({1-[2,4-Bis(trifluoromethyl)benzyl]-1H-indazol-5-yl}methylidene)-2-{3-[(2-hydroxyethyl)amino]piperidin-1-yl}-1,3-thiazol-4(5H)-one]	43
O=C1N=C(N2CCC(C(=O)NS(=O)(=O)N3CCCC3)CC2)S/C1=C\c1ccc2c(cnn2Cc2ccc(Cl)cc2C(F)(F)F)c1 [Example 174, Pyrrolidine-1-sulfonic acid (1-{5-[1-(4-chloro-2-trifluoromethyl-benzyl)-1H-indazol-5-ylmethylene]-4-oxo-4,5-dihydro-thiazol-2-yl}-piperidine-4-carbonyl)-amide]	58.1
C[C@@H]1CN(C2=NC(=O)/C(=C/c3ccc4c(cnn4Cc4ccc(C(F)(F)F)cc4C(F)(F)F)c3)S2)C[C@H](C)N1C [Example 239, 5-({1-[2,4-Bis(trifluoromethyl)benzyl]-1H-indazol-5-yl}methylidene)-2-((3R,5S)-3,4,5-trimethylpiperazin-1-yl)-1,3-thiazol-4(5H)-one]	18
CCOCCN1CCN(C2=NC(=O)/C(=C/c3ccc4c(cnn4Cc4ccc(Cl)cc4C(F)(F)F)c3)S2)CC1 [Example 81, 5-[1-(4-Chloro-2-trifluoromethyl-benzyl)-1H-indazol-5-ylmethylene]-2-[4-(2-ethoxy-ethyl)-piperazin-1-yl]-thiazol-4-one]	68.8
NCC(=O)N1CCCN(C2=NC(=O)/C(=C/c3ccc4c(cnn4Cc4ccc(Cl)cc4C(F)(F)F)c3)S2)CC1 [Example 138, 2-[4-(2-Amino-acetyl)-[1,4]diazepan-1-yl]-5-[1-(4-chloro-2-trifluoromethyl-benzyl)-1H-indazol-5-ylmethylene]-thiazol-4-one]	19
O=C1N=C(N2CCSCC2)S/C1=C\c1ccc2c(cnn2Cc2ccc(Cl)cc2C(F)(F)F)c1 [Example 148, 5-[1-(4-Chloro-2-trifluoromethyl-benzyl)-1H-indazol-5-ylmethylene]-2-thiomorpholin-4-yl-thiazol-4-one]	33
CC(C)(O)c1ccc(Cn2ncc3cc(/C=C4\SC(N5CCO[C@H](CO)C5)=NC4=O)ccc32)c(C(F)(F)F)c1 [Example 244, 5-({1-[4-(1-Hydroxy-1-methylethyl)-2-(trifluoromethyl)benzyl]-1H-indazol-5-yl}methylidene)-2-[2-(S)-(hydroxymethyl)morpholin-4-yl]-1,3-thiazol-4(5H)-one]	110
